Reference: US7994326B2 (Northwestern University, priority 2003, dated 2011)

Tests used:
Assay type in all cases: biochemical
bovine eNOS = biological target: T1, bovine eNOS (Bos taurus, UniProt P29473); assay: NOS enzyme inhibitory assay (hemoglobin capture), eNOS; settings: Table 1b; read-out: Ki eNOS
T1 construct: made in house; host or cells: E. coli (plasmid Bov-eNOSpCW)
Experimental: (§1) All of the NOS isoforms used were recombinant enzymes overexpressed in E. coli from different sources. Nitric oxide formation from NOS was monitored by the hemoglobin capture assay as described in the literature.
Expression of bovine eNOS: An overnight culture of Bov-eNOSpCW was used to inoculate 0.5 liter (in a 2.8-liter Fernbach flask) of modified TB (20 g of yeast extract, 10 g of bacto-tryptone, 2.65 g of KH2PO4, 4.33 g of Na2HPO4 and 4 ml of glycerol per liter) containing ampicillin ([…]) and chloramphenicol ([…]). The cultures were grown to an OD600 of z0.8 at 22° C. (200 rpm) and induced with 0.5 mM IPTG. One hour before IPTG induction, d-aminolevulinic acid (0.5 mM final) was added and, at the time of IPTG induction, riboflavin ([…]) and ATP (1 mM final) were also added. After induction, the flasks were kept in the dark at 22° C. (200 rpm). The cells were harvested 48 h after induction, and the cell pellet was frozen at −80° C. until purification was carried out.
Purification of bovine eNOS. The purification was typically carried out with eNOS from 2 liters of E. coli culture. The eNOS protein was purified using a modification of the published protocol for nNOS (14). The cells were resuspended in buffer C [50 mM Tris-Cl, pH 7.8, 1 mM EDTA, 1 mM DTT, 10% glycerol (v/v), 150 mM NaCl, 0.1 mM phenylmethylsulfonyl fluoride, […]], lysed by pulsed sonication and then centrifuged to sediment the cell debris. The supernatant was applied to a 2′,5′-ADP Sepharose 4B column equilibrated in buffer D [50 mM Tris-Cl, pH 7.8, 0.1 mM EDTA, 0.1 mM dithiothreitol, 150 mM NaCl, 10% glycerol (v/v)]. The column was washed with 20 column volumes of buffer B and again with 20 column volumes of buffer B containing 600 mM NaCl. Finally, protein was eluted with buffer B containing 600 mM NaCl and 5 mM 2′-AMP. The fractions were screened for absorption in the Soret region (A400) and hemoprotein-containing fractions were pooled and concentrated (Centriprep 50, Amicon). Repeated dilution/concentration [50 mM Tris-Cl, pH 7.8, 0.1 mM EDTA, 0.1 mM dithiothreitol, 10% glycerol (vol/vol)] was used to reach a final concentration of 150 mM NaCl and commensurately reduce the 2′-AMP content. […] The purified eNOS is stored in the presence of 1 mM L-arginine.
eNOS washing: eNOS contains a significant amount of L-arginine, which will interfere with the enzyme assay. The L-arginine can be removed by several dilution and concentration steps using an Amico concentrator. The dilution buffer is 10 ml Tris-HCl 50 mM containing 0.1 mM EDTA, 400 mM NaCl, 10% glycerol and 1 mM beta-mercaptoethanol. The above dilution and concentration operation was repeated three times to give purified eNOS.
(§2) Nitric oxide formation from NOS was monitored by the hemoglobin capture assay as described previously. (Hevel, J. M.; Marletta, M. A. Nitric Oxide Synthase Assays. Methods Enzymol. 1994, […], 250-258).
(§3) The selectivity of an inhibitor is defined as the ratio of the respective Ki values.

murine iNOS = biological target: T2, murine iNOS (Mus musculus, UniProt P29477); assay: NOS enzyme inhibitory assay (hemoglobin capture), iNOS; settings: Table 1b; read-out: Ki iNOS
T2 construct: made in house; host or cells: E. coli (plasmid pCWiNOS)
Excerpt: as §1
Enzyme inhibitory assay. All of the NOS isoforms used are recombinant enzymes overexpressed in E. coli from different sources.
iNOS expression: An overnight culture of pCWiNOS was used to inoculate (1:100) larger cultures of Terrific Broth media (12 g/L tryptone, 24 g/L yeast extract, 4 mL/L glycerol, 17 mM KH2PO4, and 72 mM K2HPO4) containing 50 μg/mL ampicillin and 34 μg/mL chloramphenicol at 37° C. At an OD600 of ˜0.5, the culture was cooled to 25° C. and induced by the addition of 1 mM IPTG (final concentration). After approximately 24 h of growth at 25° C., the cells were pelleted at 5300×g, transferred to 50 mL conical tubes, and stored at −80° C.
iNOS purification: Cell pellets from 1.0 L of culture were resuspended in sonication buffer (50 mM Hepes, pH 7.4, 10% glycerol, 10 μg/mL benzamidine, 5 μg/mL leupeptin, 0.2 mM of PMSF, and 1 μg/mL each of pepstatin, chymostatin, and antipain) and lysed by sonication. Centrifugation for 20 min at 13000×g yielded supernatant which contained iNOS active enzyme. iNOS supernatant was loaded onto 1 g of a 2′,5′-ADP-Sepharose 4B resin column. The column was then washed with 20 ml iNOS purification buffer (10 mM K2HPO4, 10% glycerol, 0.5 mM L-arginine, pH 7.4) and 10 μM BH4. Inducible NOS was eluted with 30 ml iNOS purification buffer supplemented with 10 mM 2′(3′)-AMP, 10 μM BH4, and 0.3 M NaCl. The eluent was concentrated to 5 ml by ultrafiltration. The above concentration operation was repeated three times more with 10 ml Hepes buffer supplemented with 10 μM BH4, to give purified inducible NOS.
as §2, §3

rat nNOS = biological target: T3, rat nNOS (Rattus norvegicus, UniProt P29476); assay: NOS enzyme inhibitory assay (hemoglobin capture), nNOS; settings: Table 1b; for Selectivity n/e: ratio of Ki values eNOS/nNOS; for Selectivity n/i: ratio of Ki values iNOS/nNOS; for Ki: read-out: Ki nNOS
T3 construct: made in house; host or cells: E. coli (plasmid pCWnNOS)
Experimental: as §1
After approximately 48 h of post-induction incubation in the dark at 25° C. the cells were pelleted at 5300×g, transferred to 50 mL conical tubes, and stored at −80° C.
nNOS purification: Cell pellets from 2.0 L of culture were resuspended in sonication Buffer A (50 mM Tris Base Buffer, pH 8.0, 10% glycerol), 2 mg/ml lysozyme. 0.5 mM L-arginine. 1 mM EDTA, 0.1 mM PMSF, 1 µg/ml antipain, and 1 μM each of leupeptin, […], and […]) and lysed by sonication. Centrifugation for 1 h at 100000×g yielded supernatant which contained nNOS active enzyme. The supernatant was brought to 2 mM CaCl2 and the protein was loaded onto a 15 ml calmodulin-Sepharose column equilibrated with Buffer A containing 2 mM CaCl2. The column was washed with 100 ml Buffer B (50 mM Hepes, 5 mM DTT, and […]) containing 2 mM CaCl2, 0.5 mM L-arginine, and 10 μM BH4, and eluted with 30 ml Buffer B supplemented with 0.3 M NaCl, 5 mM EGTA, 0.5 mM L-arginine, and 10 μM BH4. The protein was then loaded onto a 5 ml 2′,5′-ADP-Sepharose column equilibrated with Buffer B supplemented with 0.3 M NaCl, 0.5 mM L-arginine, and 10 μM BH4. The column was washed with 25 ml Buffer B containing 0.5 mM L-arginine and 10 μM BH4, and then 25 ml of Buffer B only supplemented with 10 μM BH4 (without L-arginine). Neuronal NOS was eluted with 20 ml Buffer B supplemented with 10 mM 2′(3′)-AMP, 10 μM BH4 and 0.3 M NaCl. The 20 ml eluent was then concentrated to 5 ml by ultrafiltration. The above concentration operation was repeated twice more with 10 ml Buffer B supplemented with 10 µM BH4 to give the purified neuronal NOS.
Nitric oxide formation from NOS was monitored by the hemoglobin capture assay as described previously.
as §3

Compound	Ki (bovine eNOS) [µM]	Ki (murine iNOS) [µM]	Selectivity n/e (rat nNOS)	Selectivity n/i (rat nNOS)	Ki (rat nNOS) [µM]
Cc1cc(N)nc(C[C@H]2CNC[C@H]2NCCNCc2ccc(C(F)(F)F)cc2)c1.Cl.Cl.Cl.Cl (racemic) [Compound P-50]	84.4	14.1	428.4	71.5	0.197
Cc1cc(N)nc(C[C@H]2CNC[C@H]2NCCNCc2ccc(F)cc2)c1.Cl.Cl.Cl.Cl (racemic) [Compound P-51]	130	7.97	904.5	55.4	0.144
Cc1cc(N)nc(CC2CNCC2NCCNCc2cccc(C(F)(F)F)c2)c1.Cl.Cl.Cl.Cl (racemic) [Compound P-52]	116	13.6	563.6	65.8	0.206
Cc1cccc(CNCCN[C@@H]2CNC[C@@H]2Cc2cc(C)cc(N)n2)c1.Cl.Cl.Cl.Cl (racemic) [Compound P-53]	71.6	9.01	450.5	56.7	0.159
Cc1cc(N)nc(C[C@H]2CNC[C@@H]2NCCNCc2ccc(F)cc2)c1.Cl.Cl.Cl.Cl (racemic) [Compound P-57]	78.8	27.4	90.1	31.3	0.87
Cc1cc(N)nc(CC2CNCC2NCCNCc2cccc(C(F)(F)F)c2)c1.Cl.Cl.Cl.Cl (racemic) [Compound P-58]	109	58.7	146.1	79	0.74
Cc1cccc(CNCCN[C@H]2CNC[C@@H]2Cc2cc(C)cc(N)n2)c1.Cl.Cl.Cl.Cl (racemic) [Compound P-59]	202	83.9	305.5	127.1	0.66
Cc1cc(N)nc(CC2CNCC2NCCNCc2ccc(Cl)c(Cl)c2)c1.Cl.Cl.Cl.Cl (racemic) [Compound P-60]	40.8	3.56	260	22.6	0.157
